# Reference: paper PMC7906020, “Trp-Containing Antibacterial Peptides Impair Quorum Sensing and Biofilm Development in Multidrug-Resistant Pseudomonas aeruginosa and Exhibit Synergistic Effects With Antibiotics” (Frontiers in Microbiology, 2021)
# Peptide text beside a SMILES is read from it.
# Assays:
# Format in all cases: cell-based, Pseudomonas aeruginosa
# [1] = system: OprM gene expression in MRPA0108; assay: Real-time qPCR of efflux pump gene OprM; conditions: peptide at its MIC (I1W 6.25 μM, L12W 25 μM); Supplementary Figure S2
# Description: Mid-logarithmic (mid-log) growth-phase MRPA0108 cells (1 × 10^8 CFU/ml) were incubated with the different concentrations of peptide at 37°C for 18 h. The bacterial cells were collected by centrifugation at 13,000×g and digested in lysis buffer containing 10 mg/ml lysozyme. Total RNA was isolated by using a TRIzol® Max^TM Kit (Invitrogen, Shanghai, China) according to the manufacturer’s instructions and subsequently reverse transcribed into cDNA using a Prime Script RT Master Mix Kit (Takara, Dalian, China). Real-time PCR was performed in an ABI QuantStudio^TM 5 sequence detection system (Applied Biosystems, United States) using 2 × SYBR Premix Ex Taq II (Solarbio Science and Technology Co., Ltd.). The PCR cycling conditions were as follows: 95°C for 30 s and 40 cycles of 5 s at 95°C, 30 s at 60°C, and 20 s at 72°C. The fold changes calculated according to the comparative cycle threshold (Ct) method were used for quantifying gene expression, normalizing to the expression of the housekeeping gene rpsL. PCR primers, including those for lasA, lasB, rhlA, rhlB, pelA, algD, psl, oprD, oprM, mexA, and mexB, were synthesized by Sangon Biotech (Shanghai, China) and are presented in Supplementary Table S2.
# [2] = system: pyocyanin production in MRPA0108; assay: Pyocyanin production assay; conditions: peptide at 1/4 × MIC, 24 h; OD 520 nm; vs untreated control; triplicate
# Description: The culture supernatant was obtained after centrifugation at 12,000×g for 10 min. (1) LasB elastase activity was measured using elastin-Congo red (ECR) as the substrate, as described by [Pattnaik et al. (2018)]. Briefly, 100 μl of the culture supernatant was added to 900 μl of ECR buffer (100 mM Tris-HCl, 1 mM CaCl2, pH 7.5) containing 10 mg of ECR and then incubated with shaking at 37°C for 18 h. Then, 100 μl of 0.12 M EDTA was added to stop the reaction. The insoluble ECR was removed by centrifugation, and the supernatant absorbance was measured at 495 nm. The optical density (OD) 495 nm/OD 600 nm represents the elastase activity. (2) LasA protease activity was measured as follows ([Pattnaik et al., 2018]): first, the culture supernatant was filtered to remove the bacterial cells, and then 150 μl of sterile-filtered supernatant was added to 2% azocasein (prepared in 50 mM Tris-HCl) and incubated for 4 h at 37°C. […] After centrifugation at 10,000 rpm for 10 min, 1 M NaOH was added to the supernatant, and the relative protease activity was measured at OD 440 nm. (3) The pyocyanin assay was based on the absorbance of excreted pyocyanin at 520 nm in an acidic solution ([Kong et al., 2005]). […] The OD 520 nm was measured to evaluate the change in pyocyanin content. […] The absorbance was measured at 420 nm. (5) The level of C4-HSL was quantified by GC-MS as previously described ([Guo et al., 2012]).
# [3] = system: exopolysaccharide production in MRPA0108; assay: Exopolysaccharide determination, phenol-H2SO4 method; conditions: phenol-H2SO4, 490 nm
# Description: (§1) Exopolysaccharides were determined using the phenol-H2SO4 method. Briefly, after incubation, the cultures were centrifuged at 10,000 rpm for 15 min, and the pellets were resuspended in high-salt buffer (10 mM KPO4, 5 mM NaCl, 2.5 mM MgSO4, pH 7.0), followed by recentrifugation at 10,000 rpm for 30 min. The resulting supernatant was mixed with three volumes of chilled ethanol (100%) and incubated overnight at 4°C. The precipitated exopolysaccharide was added to a mixture containing cold phenol and H2SO4, and the absorbance of the solution was measured at 490 nm. Alginate content was determined using the H2SO4-carbazole method. Briefly, after incubation, the precooled cultures were mixed with an H2SO4 solution (4:1) and vortexed in ice water, and then 0.2% carbazole dissolved in ethanol was added. The mixture was revortexed and incubated at 55°C for 30 min, and the OD 530 nm was measured.
# [4] = system: rhamnolipid production in MRPA0108; assay: Rhamnolipid production, orcinol method; conditions: peptide at 1/4 × MIC, 24 h, absorbance 420 nm, vs control, triplicate
# Description: The culture supernatant was obtained after centrifugation at 12,000×g for 10 min. (1) LasB elastase activity was measured using elastin-Congo red (ECR) as the substrate, as described by [Pattnaik et al. (2018)]. Briefly, 100 μl of the culture supernatant was added to 900 μl of ECR buffer (100 mM Tris-HCl, 1 mM CaCl2, pH 7.5) containing 10 mg of ECR and then incubated with shaking at 37°C for 18 h. Then, 100 μl of 0.12 M EDTA was added to stop the reaction. The insoluble ECR was removed by centrifugation, and the supernatant absorbance was measured at 495 nm. The optical density (OD) 495 nm/OD 600 nm represents the elastase activity. (2) LasA protease activity was measured as follows ([Pattnaik et al., 2018]): first, the culture supernatant was filtered to remove the bacterial cells, and then 150 μl of sterile-filtered supernatant was added to 2% azocasein (prepared in 50 mM Tris-HCl) and incubated for 4 h at 37°C. Trichloroacetic acid (TCA, 10%) was added to precipitate the undigested substrate. After centrifugation at 10,000 rpm for 10 min, 1 M NaOH was added to the supernatant, and the relative protease activity was measured at OD 440 nm. (3) The pyocyanin assay was based on the absorbance of excreted pyocyanin at 520 nm in an acidic solution ([Kong et al., 2005]). Three milliliters of culture supernatant were mixed with 2 ml of chloroform for 20 min, and then the pyocyanin from the chloroform phase was reextracted using 0.2 M HCl for 15 min to obtain a pink-colored pyocyanin solution. The OD 520 nm was measured to evaluate the change in pyocyanin content. (4) Rhamnolipid detection was carried out as previously described ([Wittgens et al., 2011]). Briefly, 500 μl of culture supernatant was mixed with 500 μl of ethyl acetate and vortexed vigorously for 15 s to extract rhamnolipid. After centrifugation at 10,000×g for 5 min at 4°C, the organic phase containing rhamnolipids was obtained and evaporated at room temperature overnight. The rhamnolipid extract dissolved in ultrapure water was mixed with orcinol reagent (0.19% orcinol in 53% H2SO4) and incubated at 80°C for 30 min. The absorbance was measured at 420 nm. (5) The level of C4-HSL was quantified by GC-MS as previously described ([Guo et al., 2012]).
# [5] = system: MRPA0108 biofilm formation; conditions: peptide at 1 × MIC, 24 h, 37°C; crystal violet OD 590 nm; vs control
# Description: The biofilm formation of the MRPA0108 strain was assessed as described previously ([Shang et al., 2017]). Briefly, 50 μl of a mid-log growth-phase bacterial solution (1 × 10^5 CFU/ml) was placed into a 96-well microtiter plate and incubated overnight with 50 μl of peptide at a final concentration of 1/8 × MIC, 1/4 × MIC, 1/2 × MIC, or 1 × MIC. LB liquid medium and erythromycin were used as negative and positive controls, respectively. After 24 h of incubation at 37°C, planktonic bacteria were carefully removed, and the biofilms were fixed with formaldehyde for 15 min and stained with 0.1% (w/v) crystal violet (CV) dye for 5 min. Before being quantified by reading the absorbance at 590 nm in a microtiter plate reader (Varioskan Flash Microplate Reader, Thermo Fisher Scientific Co., Beijing), biofilms were washed and solubilized with 95% ethanol. The OD 590 nm was determined as a measure of biofilm biomass.
# [6] = system: alginate production in MRPA0108; assay: Alginate determination, H2SO4-carbazole method; conditions: OD 530 nm
# Description: as §1
compound,measurement,setting,value
CC[C@H](C)[C@H](NC(=O)[C@H](CCCCN)NC(=O)[C@H](CO)NC(=O)[C@H](CC(C)C)NC(=O)[C@@H](NC(=O)[C@H](CCCCN)NC(=O)[C@H](CCCCN)NC(=O)[C@@H](N)Cc1c[nH]c2ccccc12)[C@@H](C)CC)C(=O)N[C@@H](CCCCN)C(=O)N[C@@H](CCCCN)C(=O)N[C@@H](CC(C)C)C(=O)N[C@@H](CC(C)C)C(=O)N[C@@H](CCCCN)C(N)=O [I1W] (H-WKKILSKIKKLLK-NH2; N-terminus and C-terminus assumed),reduction of OprM gene expression,[1],22.3%
same,reduction of pyocyanin production,[2],73.7%
same,reduction of exopolysaccharide production,"[3]; peptide at 1/4 × MIC, overnight 37°C",26.3%
same,reduction of exopolysaccharide production,[3]; peptide at 1 × MIC,67.3%
same,reduction of exopolysaccharide production,[3]; peptide concentration increased onefold from 1/4 × MIC,42.6%
same,inhibition of rhamnolipid production,[4],45.2%
same,reduction of biofilm formation,[5],53%
same,inhibition of alginate production,[6]; peptide at 1/4 × MIC,53%
same,inhibition of alginate production,[6]; peptide at 1 × MIC,74%
